ChEMBL document CHEMBL1201862, “PubChem BioAssay data set” (2004)
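Where inhibition never reached the appropriate level, the endpoint shown equals the highest concentration tested. Otherwise, values were interpolated linearly from a five-concentration, 48-hour dose response in 96-well plates. The concentration for 50% growth inhibition is given as GI50.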 Calls of active or inactive are those of the source. Rule as the data show it: active = GI50 up to about 1.1 µM and inactive = higher.

Assays:
Experiment in all cases: NCI anticancer screen, dose series, 48 h
[1] = test system: HCT-116
[2] = test system: NCI/ADR-RES
[3] = test system: A498
[4] = test system: Hs-578T
[5] = test system: RXF 393
[6] = test system: COLO 205
[7] = test system: NCI-H226
[8] = test system: Malme-3M
[9] = test system: CCRF-CEM
[10] = test system: TK-10
[11] = test system: MDA-MB-435
[12] = test system: NCI-H23
[13] = test system: RPMI-8226
[14] = test system: LOX IMVI
[15] = test system: OVCAR-3
[16] = test system: UACC-62
[17] = test system: OVCAR-5
[18] = test system: HOP-62
[19] = test system: CAKI-1
[20] = test system: OVCAR-8
[21] = test system: MOLT-4
[22] = test system: A549
[23] = test system: HL-60
[24] = test system: SN12C
[25] = test system: DU-145
[26] = test system: SF-539
[27] = test system: 786-0
[28] = test system: NCI-H460
[29] = test system: EKVX
[30] = test system: HT-29
[31] = test system: BT-549
[32] = test system: U-251
[33] = test system: M14
[34] = test system: SW-620
[35] = test system: HCC 2998
[36] = test system: MCF7
[37] = test system: MDA-N
[38] = test system: MDA-MB-231
[39] = test system: UACC-257
[40] = test system: PC-3
[41] = test system: SNB-75
[42] = test system: OVCAR-4
[43] = test system: SF-268
[44] = test system: SF-295
[45] = test system: K562
[46] = test system: UO-31
[47] = test system: KM12
[48] = test system: SNB-19
[49] = test system: SK-MEL-28
[50] = test system: IGROV-1
[51] = test system: HOP-92
[52] = test system: SK-OV-3
[53] = test system: T47D
[54] = test system: HCT-15
[55] = test system: SR
[56] = test system: ACHN
[57] = test system: NCI-H522

CCOC(=O)CCC(NC(=O)N1CCN(c2c(C)nc(C)nc2O)CC1)C(=O)OCC (configuration not stated)
GI50 [1]: > 100 µM (inactive)
GI50 [2]: > 100 µM (inactive)
GI50 [3]: > 100 µM (inactive)
GI50 [4]: > 100 µM (inactive)
GI50 [5]: > 100 µM (inactive)
GI50 [6]: > 100 µM (inactive)
GI50 [7]: > 100 µM (inactive)
GI50 [8]: > 100 µM (inactive)
GI50 [9]: > 100 µM (inactive)
GI50 [10]: > 100 µM (inactive)
GI50 [11]: > 100 µM (inactive)
GI50 [12]: > 100 µM (inactive)
GI50 [13]: > 100 µM (inactive)
GI50 [14]: > 100 µM (inactive)
GI50 [15]: > 100 µM (inactive)
GI50 [16]: > 100 µM (inactive)
GI50 [17]: > 100 µM (inactive)
GI50 [18]: > 100 µM (inactive)
GI50 [19]: > 100 µM (inactive)
GI50 [20]: > 100 µM (inactive)
GI50 [21]: > 100 µM (inactive)
GI50 [22]: > 100 µM (inactive)
GI50 [23]: > 100 µM (inactive)
GI50 [24]: > 100 µM (inactive)
GI50 [25]: > 100 µM (inactive)
GI50 [26]: > 100 µM (inactive)
GI50 [27]: > 100 µM (inactive)
GI50 [28]: > 100 µM (inactive)
GI50 [29]: > 100 µM (inactive)
GI50 [30]: > 100 µM (inactive)
GI50 [31]: > 100 µM (inactive)
GI50 [32]: > 100 µM (inactive)
GI50 [33]: > 100 µM (inactive)
GI50 [34]: > 100 µM (inactive)
GI50 [35]: > 100 µM (inactive)
GI50 [36]: > 100 µM (inactive)
GI50 [37]: > 100 µM (inactive)
GI50 [38]: > 100 µM (inactive)
GI50 [39]: > 100 µM (inactive)
GI50 [40]: > 100 µM (inactive)
GI50 [41]: < 0.01 µM (active)
GI50 [42]: > 100 µM (inactive)
GI50 [43]: > 100 µM (inactive)
GI50 [44]: > 100 µM (inactive)
GI50 [45]: > 100 µM (inactive)
GI50 [46]: > 100 µM (inactive)
GI50 [47]: > 100 µM (inactive)
GI50 [48]: > 100 µM (inactive)
GI50 [49]: > 100 µM (inactive)
GI50 [50]: > 100 µM (inactive)
GI50 [51]: > 100 µM (inactive)
GI50 [52]: > 100 µM (inactive)
GI50 [53]: > 100 µM (inactive)
GI50 [54]: > 100 µM
GI50 [55]: > 100 µM (inactive)
GI50 [56]: > 100 µM (inactive)
GI50 [57]: > 100 µM (inactive)
